Here are results for 15 compounds from US12145947B2, “Pyrimidine based modulators and uses thereof” (Quanta Therapeutics, Inc., priority 2022, dated 2024).

Bounds are passed on as bounds.

As a reminder, the IC50 is the point on the concentration scale where inhibition reaches its midpoint.

One experiment deals with T1, KRAS G12D/RAF1 (Homo sapiens, UniProt P01116, G12D).
T1 construct: His6-MBP (N, cleaved yes); made in house; host or cells: E. coli
Put plainly: Protein-protein interaction (PPI) HTRF assay KRAS G12D/RAF1. The format is binding. The procedure, abridged: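 HTRF pairing of His-tagged RAF1 (52-131) plus Tb-cryptate donor with GppNHp-exchanged biotin-RAS (KRAS 1-169 wt/G12D/G12V, NRAS wt) plus streptavidin-d2 acceptor; compound sits 30 min with RAS first, then 1 h RT with RAF1. IC50 derived from 665/615 ratio, untagged RAF1 defining full inhibition.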
(Time-resolved FRET reads energy transfer from a long-lived donor to a nearby acceptor.)

Experiment [1] has as its system GP2D cells (KRAS G12D), phospho-ERK. The experiment can be described thus: pERK In Cell Western (ICW) assay, GP2D cells. It counts as cell-based. To be noted: Table 4, 3 hours. The method, then: pERK ICW is a high throughput screening assay to evaluate the cellular potency of mutant KRAS small molecule inhibitors. KRAS mutant cell lines AGS and GP2D (KRAS^G12D) were purchased from ATCC and maintained respectively in RPMI and DMEM medium supplemented with 10% fetal bovine serum and Penicillin/Streptomycin.
Cells grown in exponential phase were trypsinized, resuspended in fresh media, and viable cells were counted using a cell counter with Trypan Blue (BioRad TC20). Cells were seeded into 384-well plate (Greiner 781091) at density of 5,000 cells/well for AGS and 10,000 cells/well for GP2D and allowed to grow overnight in a 37° C. CO2 incubator. The next day, compounds were dispensed into wells with a ½ log, 10-point serial dilution and top concentration of […] using Tecan D300e dispenser and incubated for 3 hours in a 37° C. CO2 incubator. Cells were then fixed with paraformaldehyde (Electron Microscopy Sciences, 15710, 4% final concentration) for 30 min, permeabilized with wash buffer (1×PBS+0.1% Triton X-100) for 30 min and blocked with Odyssey blocking buffer (Li—COR 927-70001) for 1 hour, all at room temperature (RT). Phospho-ERK antibody (CST 4370L) was diluted 1:500 in Odyssey blocking+0.2% Tween 20 and incubated with cells overnight at 4° C. The next day, plates were washed 5× with wash buffer, incubated with IRDye 800 CW, Goat anti-Rabbit secondary antibody (Li—COR 926-32211, 1:500) and DRAQ5 (CST 4084L, 1:5,000) diluted in Odyssey blocking+0.2% Tween 20 for 1 hour, washed 5×, and imaged on an Odyssey CLx imaging system.
For data analysis, signal intensities from 800 (phosphor-ERK) and 700 (DRAQ5) channels were extracted, and phospho-ERK signals were normalized to DRAQ5 signals for each well and percent of DMSO control values were computed. Data were then imported into Graphpad Prism to compute half-maximal inhibitory concentrations (IC50) using a 4-parameter variable slope model. Z-factor for each plate was computed from signals derived from wells treated with either DMSO or […] of Trametinib. AGS pERK ICW (Method B) IC50 (uM) values of selected compounds are depicted in Table 2 with compounds having a value 0.001 uM to 0.01 uM as ++++; >0.01 uM to 0.1 uM as +++; >0.1 uM to 1 uM as ++; 1 uM to 10 uM as + and >10 uM as NA.

T1 sequence (P01116 with tags, fused parts or gaps isoform P01116-2 G12D): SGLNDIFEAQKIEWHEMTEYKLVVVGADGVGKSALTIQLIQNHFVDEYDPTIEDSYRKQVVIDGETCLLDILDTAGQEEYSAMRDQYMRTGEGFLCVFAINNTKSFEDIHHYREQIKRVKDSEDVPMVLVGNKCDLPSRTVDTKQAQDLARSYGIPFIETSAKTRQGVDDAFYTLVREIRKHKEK

As for `CN(C)CC1(COc2nc(N3C[C@H]4CC[C@@H](C3)N4)c(C#N)c(N3CC4(CCc5sc(N)c(C#N)c54)C3)n2)CC1(F)F` (mixture of isomers) [Compound 74, 2-amino-1′-[5-cyano-6-(3,8-diazabicyclo[3.2.1]octan-3-yl)-2-[[1-[(dimethylamino)methyl]-2,2-difluoro-cyclopropyl]methoxy]pyrimidin-4-yl]spiro[5,6-dihydrocyclopenta[b]thiophene-4,3′-azetidine]-3-carbonitrile], the half-inhibitory concentration (IC50) is 10 to 100 µM on KRAS G12D/RAF1 (Table 4) and 1 to 10 µM in experiment [1].

For the compound `C[C@@]1(O)CCCN(c2nc(OC[C@@]34CCCN3C[C@H](F)C4)nc(N3CC4(CCc5sc(N)c(C#N)c54)C3)c2C#N)C1` [Compound 27, 2-amino-1′-[5-cyano-2-[[(2R,8S)-2-fluoro-1,2,3,5,6,7-hexahydropyrrolizin-8-yl]methoxy]-6-[(3R)-3-hydroxy-3-methyl-1-piperidyl]pyrimidin-4-yl]spiro[5,6-dihydrocyclopenta[b]thiophene-4,3′-azetidine]-3-carbonitrile], the values for the IC50 (on KRAS G12D/RAF1 (Table 4); in experiment [1]) were 1 to 10 µM and 0.1 to 1 µM, respectively.

As to `N#Cc1c(N2CCCC(O)CC2)nc(OC[C@@]23CCCN2C[C@H](F)C3)nc1N1CC2(CCc3sc(N)c(C#N)c32)C1` (stereo partly drawn) [Compound 40, 2-amino-1′-[5-cyano-6-(4-hydroxyazepan-1-yl)-2-[[(2R,8S)-2-fluoro-1,2,3,5,6,7-hexahydropyrrolizin-8-yl]methoxy]pyrimidin-4-yl]spiro[5,6-dihydrocyclopenta[b]thiophene-4,3′-azetidine]-3-carbonitrile], the results for the IC50 (against KRAS G12D/RAF1 (Table 4); in experiment [1]) were 1 to 10 µM and 0.1 to 1 µM, respectively.

As for `N#Cc1c(N2CC3COCC(C2)N3)nc(OC[C@]23CCCN2C[C@@H](F)C3)nc1N1CC2(CCc3sc(N)c(C#N)c32)C1` [Compound 43, 2-amino-1′-[5-cyano-2-[[(2S,8R)-2-fluoro-1,2,3,5,6,7-hexahydropyrrolizin-8-yl]methoxy]-6-(3-oxa-7,9-diazabicyclo[3.3.1]nonan-7-yl)pyrimidin-4-yl]spiro[5,6-dihydrocyclopenta[b]thiophene-4,3′-azetidine]-3-carbonitrile], the figures for the half-inhibitory concentration (IC50) (at KRAS G12D/RAF1 (Table 4); in experiment [1]) were 1 to 10 µM and 0.1 to 1 µM, respectively.

As to `N#Cc1c(N2CCCC(=O)CC2)nc(OC[C@@]23CCCN2C[C@H](F)C3)nc1N1CC2(CCc3sc(N)c(C#N)c32)C1` [Compound 49, 2-amino-1′-[5-cyano-2-[[(2R,8S)-2-fluoro-1,2,3,5,6,7-hexahydropyrrolizin-8-yl]methoxy]-6-(4-oxoazepan-1-yl)pyrimidin-4-yl]spiro[5,6-dihydrocyclopenta[b]thiophene-4,3′-azetidine]-3-carbonitrile], the 50% inhibitory concentration (IC50) at KRAS G12D/RAF1 (Table 4) fell in the range of 10 to 100 µM; in experiment [1], 0.1 to 1 µM.

With `N#Cc1c(N2C[C@H]3CC[C@@H](C2)N3)nc(OCC2(CN3CC[S+]([O-])CC3)CC2)nc1N1CC2(CCc3sc(N)c(C#N)c32)C1` [Compound 71, 2-amino-1′-[5-cyano-6-[(1R,5S)-3,8-diazabicyclo[3.2.1]octan-3-yl]-2-[[1-[(1-oxo-1,4-thiazinan-4-yl)methyl]cyclopropyl]methoxy]pyrimidin-4-yl]spiro[5,6-dihydrocyclopenta[b]thiophene-4,3′-azetidine]-3-carbonitrile], the IC50 lay in the range of 1 to 10 µM against KRAS G12D/RAF1 (Table 4) and 0.1 to 1 µM in experiment [1].

`N#Cc1c(N2C[C@H]3CC[C@@H](C2)N3)nc(OCC2(CN3CCOCC3)CC2)nc1N1CC2(CSc3sc(N)c(C#N)c32)C1` [Compound 73, 5-amino-1′-[5-cyano-2-[[1-(morpholinomethyl)cyclopropyl]methoxy]-6-[(1R,5S)-3,8-diazabicyclo[3.2.1]octan-3-yl]pyrimidin-4-yl]spiro[2H-thieno[2,3-b]thiophene-3,3′-azetidine]-4-carbonitrile]: the IC50 on KRAS G12D/RAF1 (Table 4) lay in the range of 0.1 to 1 µM; in experiment [1], 0.001 to 0.01 µM.

Take `CN(C)CC1(COc2nc(N3CC4CCC(C3)N4)c(C#N)c(N3CC4(CCc5sc(N)c(C#N)c54)C3)n2)CC1(F)F` (stereo not drawn) [Compound 74B, 2-amino-1′-[5-cyano-6-(3,8-diazabicyclo[3.2.1]octan-3-yl)-2-[[(1*)-1-[(dimethylamino)methyl]-2,2-difluoro-cyclopropyl]methoxy]pyrimidin-4-yl]spiro[5,6-dihydrocyclopenta[b]thiophene-4,3′-azetidine]-3-carbonitrile]: the IC50 lay within 10 to 100 µM at KRAS G12D/RAF1 (Table 4, listed as 74.2) and 1 to 10 µM in experiment [1] (listed as 74.2).

Regarding `N#Cc1c(N2CCCn3nc(-c4ccccn4)c(Cl)c3C2)nc(OCC2(CN3CCOCC3)CC2)nc1N1CC2(CCc3sc(N)c(C#N)c32)C1` [Compound 75, 2-amino-1′-[6-[3-chloro-2-(2-pyridyl)-4,6,7,8-tetrahydropyrazolo[1,5-a][1,4]diazepin-5-yl]-5-cyano-2-[[1-(morpholinomethyl)cyclopropyl]methoxy]pyrimidin-4-yl]spiro[5,6-dihydrocyclopenta[b]thiophene-4,3′-azetidine]-3-carbonitrile], the IC50 against KRAS G12D/RAF1 (Table 4) fell in the range of 0.1 to 1 µM; in experiment [1], 0.01 to 0.1 µM.

Consider `N#Cc1c(N2C[C@H]3CC[C@@H](C2)N3)nc(OCc2ccccc2)nc1N1CC2(CCc3sc(N)c(C#N)c32)C1` [Compound 76, 2-amino-1′-[2-benzyloxy-5-cyano-6-[(1R,5S)-3,8-diazabicyclo[3.2.1]octan-3-yl]pyrimidin-4-yl]spiro[5,6-dihydrocyclopenta[b]thiophene-4,3′-azetidine]-3-carbonitrile], for which the values for the IC50 (on KRAS G12D/RAF1 (Table 4); in experiment [1]) were 0.1 to 1 µM and 0.01 to 0.1 µM, respectively.

With `N#Cc1c(N2C[C@H]3CC[C@@H](C2)N3)nc(OC[C@@H]2CCN2CC(F)(F)F)nc1N1CC2(CCc3sc(N)c(C#N)c32)C1` [Compound 92, 2-amino-1′-[5-cyano-6-[(1R,5S)-3,8-diazabicyclo[3.2.1]octan-3-yl]-2-[[(2S)-1-(2,2,2-trifluoroethyl)azetidin-2-yl]methoxy]pyrimidin-4-yl]spiro[5,6-dihydrocyclopenta[b]thiophene-4,3′-azetidine]-3-carbonitrile], the IC50 lay within 10 to 100 µM at KRAS G12D/RAF1 (Table 4) and 1 to 10 µM in experiment [1].

Turning to `C=C1CN2CCCC2(COc2nc(N3CCCn4nc(C(=O)N(C)C)c(Cl)c4C3)c(C#N)c(N3CC4(CCc5sc(N)c(C#N)c54)C3)n2)C1` (stereo not drawn) [Compound 93, 5-[6-(2-amino-3-cyano-spiro[5,6-dihydrocyclopenta[b]thiophene-4,3′-azetidine]-1′-yl)-5-cyano-2-[(6-methylene-2,3,5,7-tetrahydro-1H-pyrrolizin-8-yl)methoxy]pyrimidin-4-yl]-3-chloro-N,N-dimethyl-4,6,7,8-tetrahydropyrazolo[1,5-a][1,4]diazepine-2-carboxamide], the IC50 against KRAS G12D/RAF1 (Table 4) lay in the range of 0.1 to 1 µM; in experiment [1], 0.001 to 0.01 µM.

For `C=C1CN2CCCC2(COc2nc(N3C[C@H]4CC[C@@H](C3)N4)c(C#N)c(N3CC4(CCc5sc(N)c(C#N)c54)C3)n2)C1` (stereo partly drawn) [Compound 94, 2-amino-1′-[5-cyano-2-[(6-methylene-2,3,5,7-tetrahydro-1H-pyrrolizin-8-yl)methoxy]-6-[(1R,5S)-3,8-diazabicyclo[3.2.1]octan-3-yl]pyrimidin-4-yl]spiro[5,6-dihydrocyclopenta[b]thiophene-4,3′-azetidine]-3-carbonitrile], the IC50 at KRAS G12D/RAF1 (Table 4) was under 0.1 µM; in experiment [1], 0.001 to 0.01 µM.

On to `CN(C)CC1(COc2nc(N3CCCn4nc(C(=O)N(C)C)c(Cl)c4C3)c(C#N)c(N3CC4(CCCc5sc(N)c(C#N)c54)C3)n2)CC1(F)F` (stereo not drawn) [Compound 96, 5-[6-(2-amino-3-cyano-spiro[6,7-dihydro-5H-benzothiophene-4,3′-azetidine]-1′-yl)-5-cyano-2-[[1-[(dimethylamino)methyl]-2,2-difluoro-cyclopropyl]methoxy]pyrimidin-4-yl]-3-chloro-N,N-dimethyl-4,6,7,8-tetrahydropyrazolo[1,5-a][1,4]diazepine-2-carboxamide], for which the IC50 on KRAS G12D/RAF1 (Table 4) is 1 to 10 µM; in experiment [1], 0.01 to 0.1 µM.

As to `Cn1nccc1COc1nc(N2C[C@H]3CC[C@@H](C2)N3)c(C#N)c(N2CC3(CCc4sc(N)c(C#N)c43)C2)n1` [Compound 97, 2-amino-1′-[5-cyano-2-[(2-methylpyrazol-3-yl)methoxy]-6-[(1R,5S)-3,8-diazabicyclo[3.2.1]octan-3-yl]pyrimidin-4-yl]spiro[5,6-dihydrocyclopenta[b]thiophene-4,3′-azetidine]-3-carbonitrile], the IC50 at KRAS G12D/RAF1 (Table 4) is 10 to 100 µM; in experiment [1], 0.1 to 1 µM.
